Key:
Rattus norvegicus = test: Effective dose required for lowering of blood pressure, when administered intravenously to CUP-anesthetized rats; format: functional; settings: iv
[1] = In vitro potassium channel opening activity in A10 (smooth muscle) cells; format: functional, cell-based, Rattus norvegicus
[2] = In vitro potassium channel opening activity in A10 (smooth muscle) cells; Inactive; format: functional, cell-based, Rattus norvegicus

EC50 [1] [nM] | EC50 [2] | Structure (SMILES) | ED30 (Rattus norvegicus) [µg/kg]
4 |  | CCCNC1=NC(=O)[C@@]2(CC(C)(C)Oc3ccc(Br)cc32)N1 | 2.5
 | Not Active | CCCNC1=NC(=O)[C@]2(CC(C)(C)Oc3ccc(Br)cc32)N1 | 
